Laboratory results from ChEMBL document CHEMBL5346943, “Discovery and Structural Optimization of Novel Quinolone Derivatives as Potent Irreversible Pan-Fibroblast Growth Factor Receptor Inhibitors for Treating Solid Tumors” (J Med Chem, 2023).

Tests used:
[1] = Microsomal stability in human liver microsomes assessed as intrinsic clearance preincubated for 10 mins followed by NADPH addition measured upto 60 mins by LC-MS/MS analysis; type: ADME, Microsome; details: time < 70 min, read-out: CLH
[2] = AUC(0 to t) in Sprague-Dawley rat measured at 30 mg/kg, po for 0.083 to 24 hrs by LC-MS/MS analysis; type: ADME, organism-based; set-up: time 0.083-24 hrs, dose 30 mg/kg, route po; details: in vivo
[3] = Cmax in Sprague-Dawley rat measured at 2 mg/kg, iv for 0.083 to 24 hrs by LC-MS/MS analysis; type: ADME, organism-based; set-up: time upper 24 hrs, time lower 0.083 hrs, dose 2 mg/kg, route iv; details: in vivo
[4] = Half life in Sprague-Dawley rat measured at 100 mg/kg, po for 0.083 to 24 hrs by LC-MS/MS analysis; type: ADME, organism-based; details: in vivo, time 0.083-24 hrs
[5] = Cmax in Sprague-Dawley rat measured at 30 mg/kg, po for 0.083 to 24 hrs by LC-MS/MS analysis; type: ADME, organism-based; set-up: dose 30 mg/kg, time upper 24 hrs, time lower 0.083 hrs, route po; details: in vivo
[6] = Half life in Sprague-Dawley rat measured at 10 mg/kg, po for 0.083 to 24 hrs by LC-MS/MS analysis; type: ADME, organism-based; details: in vivo, time 0.083-24 hrs
[7] = AUC (0 to infinity) in Sprague-Dawley rat measured at 2 mg/kg, iv for 0.083 to 24 hrs by LC-MS/MS analysis; type: ADME, organism-based; set-up: time lower 0.083 hrs, dose 2 mg/kg, time upper 24 hrs, route iv; details: in vivo
[8] = MRT (0 to t) in Sprague-Dawley rat measured at 2 mg/kg, iv for 0.083 to 24 hrs by LC-MS/MS analysis; type: ADME, organism-based; details: in vivo, time 0.083-24 hrs
[9] = Ionization constant, pKa of the compound in PBS buffer at pH 1.42 to 12.33 by electrochemical method; type: physicochemical
[10] = Half life in Sprague-Dawley rat measured at 60 mg/kg, po for 0.083 to 24 hrs by LC-MS/MS analysis; type: ADME, organism-based; details: in vivo, time 0.083-24 hrs
[11] = Cmax in Sprague-Dawley rat measured at 100 mg/kg, po for 0.083 to 24 hrs by LC-MS/MS analysis; type: ADME, organism-based; set-up: time upper 24 hrs, dose 100 mg/kg, time lower 0.083 hrs, route po; details: in vivo
[12] = molecular target: Fibroblast growth factor receptor 1 (Homo sapiens, UniProt P11362); test: Inhibition of FGFR1 (unknown origin) incubated for 10 mins followed by substrate addition measured after 60 mins by ADP-Glo luminescence assay
[13] = Cmax in Sprague-Dawley rat measured at 60 mg/kg, po for 0.083 to 24 hrs by LC-MS/MS analysis; type: ADME, organism-based; set-up: dose 60 mg/kg, time 0.083-24 hrs, route po; details: in vivo
[14] = molecular target: Fibroblast growth factor receptor 2 (Homo sapiens, UniProt P21802); test: Inhibition of FGFR2 (unknown origin) incubated for 10 mins followed by substrate addition measured after 60 mins by ADP-Glo luminescence assay
[15] = AUC (0 to t) in Sprague-Dawley rat measured at 2 mg/kg, iv for 0.083 to 24 hrs by LC-MS/MS analysis; type: ADME, organism-based; set-up: dose 2 mg/kg, time upper 24 hrs, time lower 0.083 hrs, route iv; details: in vivo
[16] = system: NCI-H1581; test: Antitumor activity against human NCI-H1581 cells xenografted in BALB/c nude mouse assessed as tumor growth inhibition once daily at 60 mg/kg, po for 24 days relative to control; type: functional; set-up: scale not given: the % may be the effect or the level left; details: time 24 day
[17] = system: NCI-H1581; test: Antiproliferative activity against human NCI-H1581 cells incubated for 72 hrs by Cell counting kit 8 method; type: functional, cell-based; details: NCI-H1581, 72 h
[18] = system: HT-29; test: Antiproliferative activity against human HT-29 cells incubated for 72 hrs by Cell counting kit 8 method; type: functional, cell-based; details: HT-29, 72 h
[19] = Tmax in Sprague-Dawley rat measured at 10 mg/kg, po for 0.083 to 24 hrs by LC-MS/MS analysis; type: ADME, organism-based; details: in vivo, time 0.083-24 hrs

Sequence of Fibroblast growth factor receptor 2 (P21802 whole entry): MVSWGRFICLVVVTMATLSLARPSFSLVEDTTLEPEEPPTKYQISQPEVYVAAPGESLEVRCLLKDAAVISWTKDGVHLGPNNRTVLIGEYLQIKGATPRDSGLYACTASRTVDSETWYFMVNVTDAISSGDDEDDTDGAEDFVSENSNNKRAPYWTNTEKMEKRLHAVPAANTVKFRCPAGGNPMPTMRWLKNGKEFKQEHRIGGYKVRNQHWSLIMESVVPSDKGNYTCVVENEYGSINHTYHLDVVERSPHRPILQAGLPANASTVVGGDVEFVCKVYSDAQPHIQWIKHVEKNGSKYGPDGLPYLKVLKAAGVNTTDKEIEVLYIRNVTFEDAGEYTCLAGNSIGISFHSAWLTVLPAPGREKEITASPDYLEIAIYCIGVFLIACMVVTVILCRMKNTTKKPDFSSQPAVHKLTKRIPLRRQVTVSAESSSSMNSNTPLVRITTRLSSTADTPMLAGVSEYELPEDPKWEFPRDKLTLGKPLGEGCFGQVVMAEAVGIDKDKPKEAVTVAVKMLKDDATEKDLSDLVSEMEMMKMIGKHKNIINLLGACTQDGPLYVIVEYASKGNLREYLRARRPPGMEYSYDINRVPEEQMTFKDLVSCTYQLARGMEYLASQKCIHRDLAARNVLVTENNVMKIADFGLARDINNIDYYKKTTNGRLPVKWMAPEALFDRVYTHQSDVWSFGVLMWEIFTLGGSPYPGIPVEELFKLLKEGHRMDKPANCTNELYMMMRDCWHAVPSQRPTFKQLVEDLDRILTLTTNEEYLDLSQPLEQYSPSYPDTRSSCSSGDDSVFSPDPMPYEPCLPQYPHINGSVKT
Sequence of Fibroblast growth factor receptor 1 (P11362 whole entry): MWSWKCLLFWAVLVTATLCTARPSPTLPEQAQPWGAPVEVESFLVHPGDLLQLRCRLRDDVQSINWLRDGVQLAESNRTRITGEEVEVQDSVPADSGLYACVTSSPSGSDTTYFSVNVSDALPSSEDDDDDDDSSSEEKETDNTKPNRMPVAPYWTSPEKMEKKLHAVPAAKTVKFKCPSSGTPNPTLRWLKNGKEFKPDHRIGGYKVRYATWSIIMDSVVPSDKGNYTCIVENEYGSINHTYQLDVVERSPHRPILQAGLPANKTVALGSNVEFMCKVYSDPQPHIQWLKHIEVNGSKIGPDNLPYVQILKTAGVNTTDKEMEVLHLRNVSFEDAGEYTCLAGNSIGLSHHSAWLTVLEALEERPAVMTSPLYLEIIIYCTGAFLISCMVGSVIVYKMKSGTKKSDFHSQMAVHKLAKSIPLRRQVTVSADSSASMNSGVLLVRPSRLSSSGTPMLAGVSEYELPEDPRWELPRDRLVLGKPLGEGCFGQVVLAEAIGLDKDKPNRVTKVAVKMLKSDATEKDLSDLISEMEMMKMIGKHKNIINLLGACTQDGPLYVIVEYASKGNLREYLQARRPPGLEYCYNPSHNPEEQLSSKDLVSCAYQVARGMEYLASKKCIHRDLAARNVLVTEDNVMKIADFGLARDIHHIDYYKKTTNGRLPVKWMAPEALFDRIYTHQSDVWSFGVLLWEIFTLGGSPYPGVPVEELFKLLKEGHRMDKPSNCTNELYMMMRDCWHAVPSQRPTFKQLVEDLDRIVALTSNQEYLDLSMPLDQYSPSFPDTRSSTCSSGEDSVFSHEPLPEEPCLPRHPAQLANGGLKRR

Work on `C=CC(=O)N1CCC(c2cc3c(Oc4ccc(NC(=O)NC5CC5)c(Cl)c4)ccnc3cc2OC)CC1` yielded a microsomal CLint [1] of 46.7 µL/min/mg, an AUC(0-t) [2] of 7920 ng·h/mL and a Cmax [3] of 1840 ng/mL. It also gave a half-life [4] of 1.36 h, a Cmax [5] of 6070 ng/mL and a half-life [6] of 2.48 h. It also gave an AUC(0-inf) [7] of 572 ng·h/mL, an MRT last [8] of 0.18 h and a pKa [9] of 5.77. The half-life [10] was 2.42 h, the Cmax [11] was 14600 ng/mL and the IC50 [12] was 9.9 nM. It also gave a Cmax [13] of 7990 ng/mL, an IC50 [14] of 3.1 nM and an AUC(0-t) [15] of 570 ng·h/mL. The Activity [16] was 67%, the IC50 [17] was under 0.31 nM and the IC50 [18] was 7230 nM. It also gave a Tmax [19] of 0.25 h.
